One data set concerns anemia in piglets. The settings on record: reported in Patent Document 1; cited from earlier work.
The nature of data set [1]: Administration of radiolabeled ALA (14C-ALA) to research the pharmacokinetics of ALA. In kind it is in vivo.
The subject of data set [2] is chronic kidney disease. Nature of the data set: Example 2: ingestion by a person diagnosed with chronic kidney disease, dose switched 50 mg / 5 mg / 50 mg. The class given is in vivo, human.
From the text: The effects of ingesting aminolevulinic acid phosphate and sodium ferrous citrate were examined for a person diagnosed with chronic kidney disease.
Data set [3] deals with chronic kidney disease. Nature of the data set: Example 3: ingestion by a person with chronic kidney disease after removal of one kidney. In kind it is in vivo, human. The settings on record: after ingestion of 150 mg aminolevulinic acid phosphate and 172 mg sodium ferrous citrate per day. The text has this:
The effects of ingesting aminolevulinic acid phosphate and sodium ferrous citrate were examined for a person diagnosed with chronic kidney disease after removing one of their kidneys about 5 years ago because of cancer.

Setting [4] is: (c) after one month of switching to 5 mg aminolevulinic acid phosphate + 5.74 mg sodium ferrous citrate.
[5] abbreviates: (d) after two months of switching to 5 mg aminolevulinic acid phosphate + 5.74 mg sodium ferrous citrate.

For `NCC(=O)CCC(=O)O` [ALA, 5-aminolevulinic acid], in the data set on anemia in piglets, the prevention of anemia result was “effective in preventing anemia in piglets”. Further, the “retention of radiation in the kidneys” value in data set [1] (ALA excessively administered, even if urine is discharged) is listed as “radiation has remained in the kidneys even after the passing of time”. Besides, the “tissue accumulation of ALA-derived radiation” value in data set [1] (radiolabeled ALA (14C-ALA) administered) is “found in not only the anticipated liver and muscles, but also in the kidneys”.

As to aminolevulinic acid phosphate, in the data set with chronic kidney disease [2] (setting [4]), the Serum creatinine amounted to 1.14 mg/dL, the Urea nitrogen is given as 12.90 mg/dL and the eGFR is on record as 50.10 mL/min/1.73 m^2. Also, in the data set with chronic kidney disease [2] (setting [5]), the Serum creatinine turned out to be 1.25 mg/dL, the Urea nitrogen is reported as 14.10 mg/dL and the eGFR is 45.30 mL/min/1.73 m^2. Also, the “fatigue / quality of life” value in the data set with chronic kidney disease [2] (person who ingested aminolevulinic acid phosphate and sodium ferrous citrate) is recorded as “relieved from the fatigue peculiar to chronic kidney disease”. Also, the “eGFR value (in words)” value with chronic kidney disease [2] (when 50 mg of aminolevulinic acid phosphate was ingested) was “remarkably improved (increased)”. Further, in the data set with chronic kidney disease [2] (when once again returned to 50 mg), the “eGFR value (in words)” value is recorded as “remarkable improvement”. Besides, the “improvement rate of the eGFR value (in words)” value in the data set on chronic kidney disease [2] (when reduced to 5 mg aminolevulinic acid phosphate and 5.74 mg sodium ferrous citrate) is “lowered”. For the same molecule, the “serum creatinine (FIG. 1, in words)” value in the data set on chronic kidney disease [3] was “remarkable reduction”.

(Values after patent US9475755B2, “Prophylactic agent for chronic kidney disease” (SBI Pharmaceuticals Co., Ltd., priority 2011, dated 2016).)
